Data from paper PMC6220303 (EMBO Molecular Medicine, 2018).
Several values for one entry are separate records, joined by “and”; a condition that tells them apart may be missing. Equal entries are not always repeated. Where two headings read alike, the source gives them in different places.

What was measured:
[1] = system: dogs; test: Cardiovascular safety pharmacology in dogs; format: in vivo, dog
[2] = molecular target: Ghrelin receptor (GHS) (Homo sapiens, UniProt Q92847); test: Receptor panel binding; conditions: read-out: Inhibition at 10 µM
Method: Cellular Aβ release assays were done in CHO cells stably transfected with human wild‐type and human APP were done as described (Neumann et al, 2015). Determinations of logD, pKa, and binding to brain homogenates were done internally at Novartis, Basel. Plasma protein binding was determined by equilibrium dialysis using diluted plasma from the corresponding species. MDR‐1‐MDCK cells were obtained from Prof. A. Berns, Netherlands Cancer Institute, Amsterdam NL, and bi‐directional transport measurements were done as described (Rueeger et al, 2011). Receptor binding assays were done against an internal receptor panel and externally at Ricerca Biosciences, Peitou, Taiwan. In vitro binding and cellular patch clamp assays for hERG were done at Preclinical Safety, Novartis, Basel.

[3] = system: healthy participants; test: Safety and tolerability in early clinical studies; format: in vivo, human; conditions: for dose up to which no dose-limiting safety or tolerability findings were observed: participants ≥ 60 years
Method: Only the single ascending dose studies were performed in adults 18–55 or 20–45 years of age, whereas the participants in all subsequent single and multiple dose studies were cognitively normal male and post‐menopausal female subjects ≥ 60 years of age, similar to the age range of our target population in the Generation Program.
(§1) For further details, see the Appendix Table S10 in Appendix and the accompanying clinical protocols synopsis (Appendix Table S11).

[4] = Shelf life of the clinical capsule form; format: physicochemical; conditions: kept refrigerated
[5] = clinical; format: in vivo, human; conditions: for CSF Cmax: ≥ 60 years
Method: The lower limit of quantification (LLOQ) was 1 ng/ml in plasma and 2 ng/ml in urine and CSF, except for the 3‐month study where the method for CSF was more sensitive (LLOQ 0.1 ng/ml). Plasma PK parameters were calculated using actual recorded sampling times and non‐compartmental methods with Phoenix WinNonlin version 6.4 (Certara, Inc., Princeton, NJ, USA). […]

[6] = system: healthy participants ≥ 60 years; test: Adverse events after single dose (Appendix Table S5); format: in vivo, human
Source text: as §1
Appendix Table S3. Overview of completed clinical studies with CNP520
Study description Population No. of Participants Dose/Frequency […]
First-in-human, randomized, 18-55 yrs 38 / 14 Single dose (10, 30, 90, […]
controlled, single and multiple CNP520 vs placebo) ascending oral dose study to Single dose (10, 90, 300,

Chain of Ghrelin receptor (GHS) (Q92847 whole entry): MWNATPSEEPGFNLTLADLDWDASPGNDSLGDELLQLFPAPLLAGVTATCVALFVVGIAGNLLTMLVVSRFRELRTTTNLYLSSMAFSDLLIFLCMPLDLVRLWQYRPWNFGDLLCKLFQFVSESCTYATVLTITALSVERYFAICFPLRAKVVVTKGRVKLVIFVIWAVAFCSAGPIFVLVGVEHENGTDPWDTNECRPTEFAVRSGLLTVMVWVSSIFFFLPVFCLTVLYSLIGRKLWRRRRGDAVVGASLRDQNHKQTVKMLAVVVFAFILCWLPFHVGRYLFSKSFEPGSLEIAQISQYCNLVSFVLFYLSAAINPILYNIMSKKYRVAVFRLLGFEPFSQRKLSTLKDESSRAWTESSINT

C[C@@]1(c2nc(NC(=O)c3ncc(C(F)(F)F)cc3Cl)ccc2F)CO[C@@](C)(C(F)(F)F)C(N)=N1 [CNP520]
free plasma C max ([1]; 200 mg/kg): 230 nM
effect on heart rate, ECG morphology, blood pressure ([1]; doses up to 200 mg/kg, and repeat dose toxicology studies (2, 4, 13, 39 weeks)): no effect on heart rate, ECG morphology, or blood pressure
inhibition at 10 µM [2]: 79%
skin-related AEs, mostly driven by pruritus ([3]; 3-month study, 4% for placebo): 18%
abuse potential ([3]; clinical studies): no signal for abuse potential
dose up to which no dose-limiting safety or tolerability findings were observed ([3]; for 2 weeks (maximum multiple dose tested)): ≤ 300 mg
dose up to which no dose-limiting safety or tolerability findings were observed ([3]; for 3 months): up to 85 mg
dose up to which no dose-limiting safety or tolerability findings were observed ([3]; single dose): up to 750 mg
shelf life of the capsule form [4]: 24 months
CSF conc 24h after dose Day 14 ([5]; 10 mg q.d., 2 weeks, LLOQ 2 ng/ml in CSF): < LLOQ
concentration at 24 h ([5]; both sexes, human, CSF, oral, 2 mg q.d., 3 month study, mean (CV %), read-out: CSF conc 24h after dose Day 91): 0.305 ng/mL
concentration at 24 h ([5]; both sexes, human, CSF, oral, 10 mg q.d., 3 month study, mean (CV %), read-out: CSF conc 24h after dose Day 91): 1.44 ng/mL
concentration at 24 h ([5]; both sexes, human, CSF, oral, 30 mg q.d., 2 weeks, mean (CV %), read-out: CSF conc 24h after dose Day 14): 3.33 ng/mL
concentration at 24 h ([5]; both sexes, human, CSF, oral, 35 mg q.d., 3 month study, mean (CV %), read-out: CSF conc 24h after dose Day 91): 4.52 ng/mL
concentration at 24 h ([5]; both sexes, human, CSF, oral, 85 mg q.d., 3 month study, mean (CV %), read-out: CSF conc 24h after dose Day 91): 10.4 ng/mL
concentration at 24 h ([5]; both sexes, human, CSF, oral, 90 mg q.d., 2 weeks, mean (CV %), read-out: CSF conc 24h after dose Day 14): 9.48 ng/mL
concentration at 24 h ([5]; both sexes, human, CSF, oral, 300 mg q.d., 2 weeks, mean (CV %), read-out: CSF conc 24h after dose Day 14): 29.8 ng/mL
Cmax ([5]; both sexes, human, CSF, oral, single dose of 750 mg, read-out: CSF mean C max): 39.7 nM
CSF Cmax ([5]; single dose 10 mg, LLOQ 2 ng/ml in CSF): < LLOQ
CSF Cmax ([5]; single dose 90 mg, mean (CV %)): 3.33 ( 65.2 ) ng/ml
CSF Cmax ([5]; single dose 300 mg, mean (CV %)): 10.5 (49.1) ng/ml
CSF Cmax ([5]; single dose 750 mg, mean (CV %)): 20.4 (44.8) ng/ml and 20.4 ng/ml
AE incidence: Ear and labyrinth disorders ([6]; single dose 10 mg, N = 6): 0 (0.0) n (%)
AE incidence: Eye disorders ([6]; single dose 10 mg, N = 6): 0 (0.0) n (%)
AE incidence: Gastrointestinal disorders ([6]; single dose 10 mg, N = 6): 1 (16.7) n (%)
AE incidence: General disorders and administration site conditions ([6]; single dose 10 mg, N = 6): 1 (16.7) n (%)
AE incidence: Infections and infestations ([6]; single dose 10 mg, N = 6): 0 (0.0) n (%)
AE incidence: Injury, poisoning and procedural complications ([6]; single dose 10 mg, N = 6): 0 (0.0) n (%)
AE incidence: Metabolism and nutrition disorders ([6]; single dose 10 mg, N = 6): 1 (16.7) n (%)
AE incidence: Nervous system disorders ([6]; single dose 10 mg, N = 6): 2 (33.3) n (%)
AE incidence: Psychiatric disorders ([6]; single dose 10 mg, N = 6): 0 (0.0) n (%)
AE incidence: Respiratory, thoracic and mediastinal disorders ([6]; single dose 10 mg, N = 6): 0 (0.0) n (%)
AE incidence: Vascular disorders ([6]; single dose 10 mg, N = 6): 0 (0.0) n (%)
Participants with at least one AE ([6]; single dose 10 mg, N = 6): 5 (83.3) n (%)
AE incidence: Ear and labyrinth disorders ([6]; single dose 90 mg, N = 6): 0 (0.0) n (%)
AE incidence: Eye disorders ([6]; single dose 90 mg, N = 6): 1 (16.7) n (%)
AE incidence: Gastrointestinal disorders ([6]; single dose 90 mg, N = 6): 0 (0.0) n (%)
AE incidence: General disorders and administration site conditions ([6]; single dose 90 mg, N = 6): 0 (0.0) n (%)
AE incidence: Infections and infestations ([6]; single dose 90 mg, N = 6): 0 (0.0) n (%)
AE incidence: Injury, poisoning and procedural complications ([6]; single dose 90 mg, N = 6): 0 (0.0) n (%)
AE incidence: Metabolism and nutrition disorders ([6]; single dose 90 mg, N = 6): 0 (0.0) n (%)
AE incidence: Nervous system disorders ([6]; single dose 90 mg, N = 6): 1 (16.7) n (%)
AE incidence: Psychiatric disorders ([6]; single dose 90 mg, N = 6): 1 (16.7) n (%)
AE incidence: Respiratory, thoracic and mediastinal disorders ([6]; single dose 90 mg, N = 6): 0 (0.0) n (%)
AE incidence: Vascular disorders ([6]; single dose 90 mg, N = 6): 1 (16.7) n (%)
Participants with at least one AE ([6]; single dose 90 mg, N = 6): 3 (50.0) n (%)
AE incidence: Ear and labyrinth disorders ([6]; single dose 300 mg, N = 8): 1 (12.5) n (%)
AE incidence: Eye disorders ([6]; single dose 300 mg, N = 8): 0 (0.0) n (%)
AE incidence: Gastrointestinal disorders ([6]; single dose 300 mg, N = 8): 0 (0.0) n (%)
AE incidence: General disorders and administration site conditions ([6]; single dose 300 mg, N = 8): 0 (0.0) n (%)
AE incidence: Infections and infestations ([6]; single dose 300 mg, N = 8): 0 (0.0) n (%)
AE incidence: Injury, poisoning and procedural complications ([6]; single dose 300 mg, N = 8): 0 (0.0) n (%)
AE incidence: Metabolism and nutrition disorders ([6]; single dose 300 mg, N = 8): 0 (0.0) n (%)
AE incidence: Nervous system disorders ([6]; single dose 300 mg, N = 8): 2 (25.0) n (%)
AE incidence: Psychiatric disorders ([6]; single dose 300 mg, N = 8): 0 (0.0) n (%)
AE incidence: Respiratory, thoracic and mediastinal disorders ([6]; single dose 300 mg, N = 8): 0 (0.0) n (%)
AE incidence: Vascular disorders ([6]; single dose 300 mg, N = 8): 0 (0.0) n (%)
Participants with at least one AE ([6]; single dose 300 mg, N = 8): 6 (75.0) n (%)
AE incidence: Ear and labyrinth disorders ([6]; single dose 750 mg, N = 9): 0 (0.0) n (%)
AE incidence: Eye disorders ([6]; single dose 750 mg, N = 9): 0 (0.0) n (%)
AE incidence: Gastrointestinal disorders ([6]; single dose 750 mg, N = 9): 2 (22.2) n (%)
AE incidence: General disorders and administration site conditions ([6]; single dose 750 mg, N = 9): 1 (11.1) n (%)
AE incidence: Infections and infestations ([6]; single dose 750 mg, N = 9): 0 (0.0) n (%)
AE incidence: Injury, poisoning and procedural complications ([6]; single dose 750 mg, N = 9): 3 (33.3) n (%)
AE incidence: Metabolism and nutrition disorders ([6]; single dose 750 mg, N = 9): 0 (0.0) n (%)
AE incidence: Nervous system disorders ([6]; single dose 750 mg, N = 9): 3 (33.3) n (%)
AE incidence: Psychiatric disorders ([6]; single dose 750 mg, N = 9): 0 (0.0) n (%)
AE incidence: Respiratory, thoracic and mediastinal disorders ([6]; single dose 750 mg, N = 9): 0 (0.0) n (%)
AE incidence: Vascular disorders ([6]; single dose 750 mg, N = 9): 0 (0.0) n (%)
Participants with at least one AE ([6]; single dose 750 mg, N = 9): 8 (88.9) n (%)
